# In ChEMBL document CHEMBL5723582, “Data for DCP probe T-10430” (2024):
# Columns and labels:
# Settings in all cases: Compound concentration 1.0 uM
# [1] = molecular target: C-X-C chemokine receptor type 4 (Homo sapiens) (UniProt P61073); test: RLU of CXCR4 at 1.0 µM in the […] PRESTO-Tango GPCRome screen
# [2] = molecular target: Beta-2 adrenergic receptor (Homo sapiens) (UniProt P07550); test: RLU of ADRB2 at 1.0 µM in the […] PRESTO-Tango GPCRome screen
# [3] = molecular target: Probable G-protein coupled receptor 27 (Homo sapiens) (UniProt Q9NS67); test: RLU of GPR27 at 1.0 µM in the […] PRESTO-Tango GPCRome screen
# [4] = molecular target: Adhesion G protein-coupled receptor A3 (Homo sapiens) (UniProt Q8IWK6); test: RLU of GPR125 at 1.0 µM in the […] PRESTO-Tango GPCRome screen
# [5] = molecular target: Prostacyclin receptor (Homo sapiens) (UniProt P43119); test: RLU of PTGIR at 1.0 µM in the […] PRESTO-Tango GPCRome screen
# [6] = molecular target: Neuropeptide S receptor (Homo sapiens) (UniProt Q6W5P4); test: RLU of NPS at 1.0 µM in the […] PRESTO-Tango GPCRome screen
# [7] = molecular target: G-protein coupled receptor 20 (Homo sapiens) (UniProt Q99678); test: RLU of GPR20 at 1.0 µM in the […] PRESTO-Tango GPCRome screen
# [8] = molecular target: C-C chemokine receptor type 2 (Homo sapiens) (UniProt P41597); test: RLU of CCR2 at 1.0 µM in the […] PRESTO-Tango GPCRome screen
# [9] = molecular target: B2 bradykinin receptor (Homo sapiens) (UniProt P30411); test: RLU of BDKRB2 at 1.0 µM in the […] PRESTO-Tango GPCRome screen
# [10] = molecular target: P2Y purinoceptor 12 (Homo sapiens) (UniProt Q9H244); test: RLU of P2RY12 at 1.0 µM in the […] PRESTO-Tango GPCRome screen
# [11] = molecular target: Thromboxane A2 receptor (Homo sapiens) (UniProt P21731); test: RLU of TBXA2R at 1.0 µM in the […] PRESTO-Tango GPCRome screen
# [12] = molecular target: Adhesion G-protein coupled receptor G5 (Homo sapiens) (UniProt Q8IZF4); test: RLU of GPR114 at 1.0 µM in the […] PRESTO-Tango GPCRome screen
# [13] = molecular target: Lysophosphatidic acid receptor 6 (Homo sapiens) (UniProt P43657); test: RLU of LPAR6 at 1.0 µM in the […] PRESTO-Tango GPCRome screen
# [14] = molecular target: Chemerin-like receptor 1 (Homo sapiens) (UniProt Q99788); test: RLU of CMKLR1 at 1.0 µM in the […] PRESTO-Tango GPCRome screen
# [15] = molecular target: Alpha-1A adrenergic receptor (Homo sapiens) (UniProt P35348); test: RLU of ADRA1A at 1.0 µM in the […] PRESTO-Tango GPCRome screen
# [16] = molecular target: Sphingosine 1-phosphate receptor 4 (Homo sapiens) (UniProt O95977); test: RLU of S1PR4 at 1.0 µM in the […] PRESTO-Tango GPCRome screen
# [17] = molecular target: Trace amine-associated receptor 5 (Homo sapiens) (UniProt O14804); test: RLU of TAAR5 at 1.0 µM in the […] PRESTO-Tango GPCRome screen
# [18] = molecular target: Metabotropic glutamate receptor 6 (Homo sapiens) (UniProt O15303); test: RLU of GRM6 at 1.0 µM in the Aequorin PRESTO-Tango GPCRome screen
# [19] = molecular target: Mas-related G-protein coupled receptor member E (Homo sapiens) (UniProt Q86SM8); test: RLU of MRGPRE at 1.0 µM in the […] PRESTO-Tango GPCRome screen
# [20] = molecular target: Cysteinyl leukotriene receptor 1 (Homo sapiens) (UniProt Q9Y271); test: RLU of CYSLTR1 at 1.0 µM in the […] PRESTO-Tango GPCRome screen
# [21] = molecular target: Muscarinic acetylcholine receptor M4 (Homo sapiens) (UniProt P08173); test: RLU of CHRM4 at 1.0 µM in the […] PRESTO-Tango GPCRome screen
# [22] = molecular target: Melatonin receptor type 1B (Homo sapiens) (UniProt P49286); test: RLU of MTNR1B at 1.0 µM in the […] PRESTO-Tango GPCRome screen
# [23] = molecular target: G-protein coupled receptor 151 (Homo sapiens) (UniProt Q8TDV0); test: RLU of GPR151 at 1.0 µM in the […] PRESTO-Tango GPCRome screen
# [24] = molecular target: Uracil nucleotide/cysteinyl leukotriene receptor (Homo sapiens) (UniProt Q13304); test: RLU of GPR17 at 1.0 µM in the […] PRESTO-Tango GPCRome screen
# [25] = molecular target: Prokineticin receptor 2 (Homo sapiens) (UniProt Q8NFJ6); test: RLU of PK2 at 1.0 µM in the […] PRESTO-Tango GPCRome screen
# [26] = molecular target: G-protein coupled receptor 15 (Homo sapiens) (UniProt P49685); test: RLU of GPR15 at 1.0 µM in the […] PRESTO-Tango GPCRome screen
# [27] = molecular target: Glucagon-like peptide 2 receptor (Homo sapiens) (UniProt O95838); test: RLU of GLP2R at 1.0 µM in the […] PRESTO-Tango GPCRome screen
# [28] = molecular target: Neuropeptides B/W receptor type 2 (Homo sapiens) (UniProt P48146); test: RLU of NPBW2 at 1.0 µM in the […] PRESTO-Tango GPCRome screen
# [29] = molecular target: Adhesion G protein-coupled receptor E5 (Homo sapiens) (UniProt P48960); test: RLU of CD97 at 1.0 µM in the […] PRESTO-Tango GPCRome screen
# [30] = molecular target: Mas-related G-protein coupled receptor member G (Homo sapiens) (UniProt Q86SM5); test: RLU of MRGPRG at 1.0 µM in the […] PRESTO-Tango GPCRome screen
# [31] = molecular target: Substance-P receptor (Homo sapiens) (UniProt P25103); test: RLU of TACR1 at 1.0 µM in the […] PRESTO-Tango GPCRome screen
# [32] = molecular target: Trace amine-associated receptor 9 (Homo sapiens) (UniProt Q96RI9); test: RLU of TAAR9 at 1.0 µM in the […] PRESTO-Tango GPCRome screen
# [33] = molecular target: Muscarinic acetylcholine receptor M3 (Homo sapiens) (UniProt P20309); test: RLU of CHRM3 at 1.0 µM in the […] PRESTO-Tango GPCRome screen
# [34] = system: Pyroglutamylated RFamide peptide receptor (Homo sapiens); test: RLU of QRFP at 1.0 µM in the […] PRESTO-Tango GPCRome screen
# [35] = molecular target: Prostaglandin E2 receptor EP4 subtype (Homo sapiens) (UniProt P35408); test: RLU of PTGER4 at 1.0 µM in the […] PRESTO-Tango GPCRome screen
# Mas-related G-protein coupled receptor member G (Homo sapiens), sequence (Q86SM5 whole entry): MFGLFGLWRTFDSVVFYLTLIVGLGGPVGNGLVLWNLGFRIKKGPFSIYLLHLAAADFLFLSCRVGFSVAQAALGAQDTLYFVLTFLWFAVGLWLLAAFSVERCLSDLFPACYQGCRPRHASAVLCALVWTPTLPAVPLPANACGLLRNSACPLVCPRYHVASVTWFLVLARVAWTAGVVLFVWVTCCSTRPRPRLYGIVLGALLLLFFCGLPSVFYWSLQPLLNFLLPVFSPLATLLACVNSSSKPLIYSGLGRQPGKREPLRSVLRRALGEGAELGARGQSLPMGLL
# G-protein coupled receptor 20 (Homo sapiens), sequence (Q99678 whole entry): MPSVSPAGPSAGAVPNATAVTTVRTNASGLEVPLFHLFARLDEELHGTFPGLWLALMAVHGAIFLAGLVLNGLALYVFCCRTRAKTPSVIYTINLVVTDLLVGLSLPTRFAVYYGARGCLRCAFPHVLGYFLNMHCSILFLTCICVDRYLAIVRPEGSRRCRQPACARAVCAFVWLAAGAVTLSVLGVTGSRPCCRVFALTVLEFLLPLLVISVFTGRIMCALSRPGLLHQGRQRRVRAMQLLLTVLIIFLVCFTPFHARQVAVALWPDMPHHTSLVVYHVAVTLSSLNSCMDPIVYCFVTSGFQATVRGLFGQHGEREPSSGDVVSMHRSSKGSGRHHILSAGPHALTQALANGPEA
# Prokineticin receptor 2 (Homo sapiens), sequence (Q8NFJ6 whole entry): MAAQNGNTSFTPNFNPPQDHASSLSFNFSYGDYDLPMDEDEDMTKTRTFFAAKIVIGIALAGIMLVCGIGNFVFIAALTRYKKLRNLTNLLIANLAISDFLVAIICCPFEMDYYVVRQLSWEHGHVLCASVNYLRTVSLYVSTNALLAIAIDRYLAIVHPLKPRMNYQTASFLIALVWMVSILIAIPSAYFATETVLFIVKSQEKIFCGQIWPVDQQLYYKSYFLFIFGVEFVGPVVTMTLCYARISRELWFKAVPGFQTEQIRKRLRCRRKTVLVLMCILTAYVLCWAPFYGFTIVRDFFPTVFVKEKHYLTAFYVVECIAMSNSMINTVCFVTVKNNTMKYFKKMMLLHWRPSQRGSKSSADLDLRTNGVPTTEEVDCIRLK
# Adhesion G-protein coupled receptor G5 (Homo sapiens), sequence (Q8IZF4 whole entry): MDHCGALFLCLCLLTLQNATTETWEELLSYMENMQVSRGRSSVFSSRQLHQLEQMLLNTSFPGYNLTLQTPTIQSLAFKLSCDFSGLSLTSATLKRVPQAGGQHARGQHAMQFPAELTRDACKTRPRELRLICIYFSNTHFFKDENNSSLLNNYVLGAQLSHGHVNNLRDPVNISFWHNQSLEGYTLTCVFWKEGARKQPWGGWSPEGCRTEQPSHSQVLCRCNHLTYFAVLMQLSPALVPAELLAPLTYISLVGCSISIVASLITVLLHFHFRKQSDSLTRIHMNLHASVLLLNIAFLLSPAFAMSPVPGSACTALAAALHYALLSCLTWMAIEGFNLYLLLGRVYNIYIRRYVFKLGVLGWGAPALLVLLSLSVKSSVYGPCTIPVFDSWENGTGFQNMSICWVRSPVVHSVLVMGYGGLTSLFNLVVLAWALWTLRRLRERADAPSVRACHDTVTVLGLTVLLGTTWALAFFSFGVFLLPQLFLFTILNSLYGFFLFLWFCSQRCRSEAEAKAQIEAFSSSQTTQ
# Uracil nucleotide/cysteinyl leukotriene receptor (Homo sapiens), sequence (Q13304 whole entry): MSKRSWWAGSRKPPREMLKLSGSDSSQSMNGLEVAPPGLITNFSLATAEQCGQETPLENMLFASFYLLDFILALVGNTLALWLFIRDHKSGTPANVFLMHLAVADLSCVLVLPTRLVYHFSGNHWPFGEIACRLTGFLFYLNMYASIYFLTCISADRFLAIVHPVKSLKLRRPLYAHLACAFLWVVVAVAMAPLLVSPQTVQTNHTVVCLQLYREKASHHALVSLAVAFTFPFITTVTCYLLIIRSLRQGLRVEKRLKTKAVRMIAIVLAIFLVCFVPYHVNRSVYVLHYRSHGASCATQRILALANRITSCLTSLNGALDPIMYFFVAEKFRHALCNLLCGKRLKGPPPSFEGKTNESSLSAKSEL
# Alpha-1A adrenergic receptor (Homo sapiens), sequence (P35348 whole entry): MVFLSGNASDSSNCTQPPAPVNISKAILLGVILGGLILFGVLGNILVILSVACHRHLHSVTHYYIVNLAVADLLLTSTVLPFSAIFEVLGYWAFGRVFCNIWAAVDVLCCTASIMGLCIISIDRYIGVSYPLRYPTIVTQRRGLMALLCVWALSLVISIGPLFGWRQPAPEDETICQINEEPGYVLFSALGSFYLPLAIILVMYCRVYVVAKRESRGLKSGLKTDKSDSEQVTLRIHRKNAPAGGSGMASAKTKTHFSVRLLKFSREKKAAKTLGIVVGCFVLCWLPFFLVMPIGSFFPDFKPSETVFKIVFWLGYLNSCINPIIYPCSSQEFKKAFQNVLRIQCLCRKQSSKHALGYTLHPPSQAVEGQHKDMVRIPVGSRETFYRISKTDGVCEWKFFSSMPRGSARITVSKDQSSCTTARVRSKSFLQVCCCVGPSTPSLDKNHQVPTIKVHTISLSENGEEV
# C-X-C chemokine receptor type 4 (Homo sapiens), sequence (P61073 whole entry): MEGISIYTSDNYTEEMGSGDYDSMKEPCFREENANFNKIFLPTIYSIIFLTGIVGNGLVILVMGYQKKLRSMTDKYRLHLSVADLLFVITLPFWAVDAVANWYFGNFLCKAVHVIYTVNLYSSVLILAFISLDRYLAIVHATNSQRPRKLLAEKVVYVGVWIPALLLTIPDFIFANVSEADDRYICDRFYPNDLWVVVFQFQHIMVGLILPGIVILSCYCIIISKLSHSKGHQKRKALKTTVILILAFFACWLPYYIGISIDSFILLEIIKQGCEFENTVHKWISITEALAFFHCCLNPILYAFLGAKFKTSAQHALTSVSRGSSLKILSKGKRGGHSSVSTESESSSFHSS
# Sphingosine 1-phosphate receptor 4 (Homo sapiens), sequence (O95977 whole entry): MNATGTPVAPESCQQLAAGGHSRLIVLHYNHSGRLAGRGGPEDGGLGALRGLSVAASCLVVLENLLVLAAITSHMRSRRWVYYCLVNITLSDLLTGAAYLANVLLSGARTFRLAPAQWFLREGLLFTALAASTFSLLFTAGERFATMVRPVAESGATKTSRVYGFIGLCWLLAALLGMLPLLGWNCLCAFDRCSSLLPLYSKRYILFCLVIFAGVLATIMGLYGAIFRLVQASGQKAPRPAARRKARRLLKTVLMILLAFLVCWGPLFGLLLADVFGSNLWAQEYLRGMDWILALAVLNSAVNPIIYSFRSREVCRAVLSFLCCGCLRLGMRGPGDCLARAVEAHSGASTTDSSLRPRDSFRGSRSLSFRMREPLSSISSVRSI
# G-protein coupled receptor 151 (Homo sapiens), sequence (Q8TDV0 whole entry): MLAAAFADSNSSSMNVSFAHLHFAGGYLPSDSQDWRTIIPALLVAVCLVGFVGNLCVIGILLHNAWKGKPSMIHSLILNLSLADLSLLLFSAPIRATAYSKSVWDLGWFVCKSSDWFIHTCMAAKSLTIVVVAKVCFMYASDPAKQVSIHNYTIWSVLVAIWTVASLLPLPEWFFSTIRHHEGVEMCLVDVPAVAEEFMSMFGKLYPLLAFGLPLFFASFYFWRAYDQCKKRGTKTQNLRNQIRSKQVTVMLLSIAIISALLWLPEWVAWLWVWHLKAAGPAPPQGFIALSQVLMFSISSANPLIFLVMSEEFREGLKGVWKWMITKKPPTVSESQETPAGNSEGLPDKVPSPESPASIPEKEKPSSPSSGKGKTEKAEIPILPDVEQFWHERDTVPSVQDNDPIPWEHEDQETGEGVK
# Adhesion G protein-coupled receptor E5 (Homo sapiens), sequence (P48960 21-530 limits assumed): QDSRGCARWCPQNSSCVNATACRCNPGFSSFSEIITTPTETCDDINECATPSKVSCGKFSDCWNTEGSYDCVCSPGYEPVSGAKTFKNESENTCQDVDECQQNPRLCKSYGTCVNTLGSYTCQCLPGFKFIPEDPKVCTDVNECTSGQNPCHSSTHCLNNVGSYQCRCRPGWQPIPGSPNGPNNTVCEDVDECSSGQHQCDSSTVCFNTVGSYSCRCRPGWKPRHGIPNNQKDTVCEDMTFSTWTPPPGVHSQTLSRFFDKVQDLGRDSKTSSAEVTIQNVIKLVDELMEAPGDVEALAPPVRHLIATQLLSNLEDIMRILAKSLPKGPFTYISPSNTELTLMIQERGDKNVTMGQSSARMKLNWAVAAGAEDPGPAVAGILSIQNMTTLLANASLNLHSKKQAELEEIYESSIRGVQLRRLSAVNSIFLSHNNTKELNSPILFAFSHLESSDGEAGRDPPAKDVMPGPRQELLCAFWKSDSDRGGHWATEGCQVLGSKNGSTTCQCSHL
# Adhesion G protein-coupled receptor E5 (Homo sapiens), sequence (P48960 531-835 limits assumed): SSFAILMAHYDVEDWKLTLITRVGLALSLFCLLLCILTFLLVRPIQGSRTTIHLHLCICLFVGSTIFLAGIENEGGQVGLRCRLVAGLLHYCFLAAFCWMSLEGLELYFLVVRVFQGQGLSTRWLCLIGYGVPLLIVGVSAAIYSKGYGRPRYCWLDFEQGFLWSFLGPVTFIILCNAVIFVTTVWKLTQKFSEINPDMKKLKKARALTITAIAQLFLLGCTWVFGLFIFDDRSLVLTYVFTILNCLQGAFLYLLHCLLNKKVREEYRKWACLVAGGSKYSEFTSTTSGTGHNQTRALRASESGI
# B2 bradykinin receptor (Homo sapiens), sequence (P30411 whole entry): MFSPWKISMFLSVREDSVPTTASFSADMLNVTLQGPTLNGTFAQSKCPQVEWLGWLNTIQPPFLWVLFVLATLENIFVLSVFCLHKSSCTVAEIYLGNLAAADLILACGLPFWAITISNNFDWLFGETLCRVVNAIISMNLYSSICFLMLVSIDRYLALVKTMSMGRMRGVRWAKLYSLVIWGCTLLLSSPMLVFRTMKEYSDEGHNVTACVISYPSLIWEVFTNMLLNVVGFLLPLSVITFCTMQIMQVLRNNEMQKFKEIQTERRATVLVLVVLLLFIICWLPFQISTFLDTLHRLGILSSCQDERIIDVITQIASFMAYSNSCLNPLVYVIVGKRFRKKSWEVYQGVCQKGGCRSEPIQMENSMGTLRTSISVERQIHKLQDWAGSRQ
compound,measurement,setting,value
CCCCC(=O)N1CC2(C1)CN(c1ccccc1-c1nnn[nH]1)C2,RLU,[1],-831
same,RLU,[2],4580
same,RLU,[3],-2080
same,RLU,[4],-4100
same,RLU,[5],-408
same,RLU,[6],3790
same,RLU,[7],-1200
same,RLU,[8],2850
same,RLU,[9],892
same,RLU,[10],-34.4
same,RLU,[11],233
same,RLU,[12],432
same,RLU,[13],-7370
same,RLU,[14],-333
same,RLU,[15],8350
same,RLU,[16],-471
same,RLU,[17],821
same,RLU,[18],-158
same,RLU,[19],-3210
same,RLU,[20],1610
same,RLU,[21],-838
same,RLU,[22],4170
same,RLU,[23],12900
same,RLU,[24],897
same,RLU,[25],-566
same,RLU,[26],1710
same,RLU,[27],-2690
same,RLU,[28],-872
same,RLU,[29],-895
same,RLU,[30],-560
same,RLU,[31],-4720
same,RLU,[32],-547
same,RLU,[33],6260
same,RLU,[34],-577
same,RLU,[35],620
